Assay results published in PubChem BioAssay (NCI).
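Compound exposure: 48 hours, 5 concentrations, 96-well plates. TGI denotes the concentration required for complete inhibition of growth.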

Legend:
Test in all cases: NCI tumour cell line growth inhibition, 48 h
[1] = system: 786-0 renal
[2] = system: A498 renal
[3] = system: A549 NSCLC
[4] = system: ACHN renal
[5] = system: CAKI-1 renal
[6] = system: CCRF-CEM leukemia
[7] = system: COLO 205 colon
[8] = system: DLD-1 colon
[9] = system: DMS 114 small cell lung
[10] = system: DMS 273 small cell lung
[11] = system: EKVX NSCLC
[12] = system: HCC-2998 colon
[13] = system: HCT-15 colon
[14] = system: HL-60(TB) leukemia
[15] = system: HOP-18 NSCLC
[16] = system: HOP-62 NSCLC
[17] = system: HT29 colon
[18] = system: IGROV1 ovarian
[19] = system: K-562 leukemia
[20] = system: KM12 colon
[21] = system: KM20L2 colon
[22] = system: LOX IMVI melanoma
[23] = system: LXFL 529 NSCLC
[24] = system: M14 melanoma
[25] = system: M19-MEL melanoma
[26] = system: MALME-3M melanoma
[27] = system: MOLT-4 leukemia
[28] = system: NCI-H226 lung
[29] = system: NCI-H23 lung
[30] = system: NCI-H460 lung
[31] = system: NCI-H522 lung
[32] = system: OVCAR-3 ovarian
[33] = system: OVCAR-4 ovarian
[34] = system: OVCAR-5 ovarian
[35] = system: OVCAR-8 ovarian
[36] = system: RPMI-8226 leukemia
[37] = system: RXF-631 renal
[38] = system: SF-268 CNS
[39] = system: SF-295 CNS
[40] = system: SF-539 CNS
[41] = system: SK-MEL-2 melanoma
[42] = system: SK-MEL-28 melanoma
[43] = system: SK-MEL-5 melanoma
[44] = system: SK-OV-3 ovarian
[45] = system: SN12C renal
[46] = system: SNB-19 CNS
[47] = system: SNB-75 CNS
[48] = system: SNB-78 CNS
[49] = system: SW-620 colon
[50] = system: TK-10 renal
[51] = system: U251 CNS
[52] = system: UACC-257 melanoma
[53] = system: UACC-62 melanoma
[54] = system: UO-31 renal
[55] = system: XF 498 CNS
[56] = system: HCT-116 colon
[57] = system: HOP-92 NSCLC
[58] = system: MCF7 breast
[59] = system: NCI/ADR-RES ovarian
[60] = system: P388 leukemia
[61] = system: P388/ADR leukemia
[62] = system: RXF 393 renal
[63] = system: SN12K1 renal

In the case of Cc1cc2c(cc1C)[n+](=O)c(C(=O)/C=C/c1ccccc1Cl)c(C)n2[O-], the TGI [1] is reported as 30.3 µM, the TGI [2] is reported as 96.7 µM and the TGI [3] is reported as > 100 µM. The TGI [4] was 58.1 µM, the TGI [5] was 43.2 µM and the TGI [6] was > 100 µM. It also gave a TGI [7] of 36.9 µM, a TGI [8] of 42.1 µM and a TGI [9] of 53.4 µM. For the same compound, the TGI [10] was > 100 µM, the TGI [11] was > 100 µM and the TGI [12] was 34.2 µM. The TGI [13] was 75.3 µM, the TGI [14] was 99.6 µM and the TGI [15] was > 100 µM. The TGI [16] was 58.9 µM, the TGI [17] was > 100 µM and the TGI [18] was 37.9 µM. The TGI [19] was > 100 µM, the TGI [20] was 96.2 µM and the TGI [21] was > 100 µM. For the same compound, the TGI [22] was > 100 µM, the TGI [23] was 34.6 µM and the TGI [24] was 51.7 µM. The TGI [25] was > 100 µM, the TGI [26] was 94.5 µM and the TGI [27] was > 100 µM. For the same compound, the TGI [28] was > 100 µM, the TGI [29] was 46.7 µM and the TGI [30] was 63.7 µM. The TGI [31] was 26.7 µM, the TGI [32] was 88.8 µM and the TGI [33] was > 100 µM. The TGI [34] was > 100 µM, the TGI [35] was 63.8 µM and the TGI [36] was > 100 µM. For the same compound, the TGI [37] was 84.9 µM, the TGI [38] was 95.9 µM and the TGI [39] was > 100 µM. The TGI [40] was 42.6 µM, the TGI [41] was 68.7 µM and the TGI [42] was 86.8 µM. The TGI [43] was 59.6 µM, the TGI [44] was 73.1 µM and the TGI [45] was > 100 µM. The TGI [46] was > 100 µM, the TGI [47] was 47.5 µM and the TGI [48] was > 100 µM. The TGI [49] was > 100 µM, the TGI [50] was 57.3 µM and the TGI [51] was 84.4 µM. It also gave a TGI [52] of 57.5 µM, a TGI [53] of 35.1 µM and a TGI [54] of 48.2 µM. It also gave a TGI [55] of 42.1 µM.

With O=C(O)CNS(=O)(=O)c1ccc(NC(=O)Nc2ccccc2)cc1 the TGI [2] was > 100 µM, the TGI [3] was > 100 µM and the TGI [5] was > 100 µM. The TGI [6] was > 100 µM, the TGI [7] was > 100 µM and the TGI [8] was > 100 µM. For the same compound, the TGI [9] was > 100 µM, the TGI [10] was > 100 µM and the TGI [11] was > 100 µM. The TGI [12] was > 100 µM, the TGI [56] was > 100 µM and the TGI [13] was > 100 µM. The TGI [14] was > 31.6 µM, the TGI [15] was > 100 µM and the TGI [16] was > 100 µM. For the same compound, the TGI [57] was > 100 µM, the TGI [17] was > 100 µM and the TGI [18] was > 54.4 µM. The TGI [19] was > 100 µM, the TGI [20] was > 100 µM and the TGI [21] was > 100 µM. The TGI [22] was > 100 µM, the TGI [25] was > 55.5 µM and the TGI [26] was > 100 µM. The TGI [58] was > 100 µM, the TGI [27] was > 100 µM and the TGI [28] was > 100 µM. For the same compound, the TGI [29] was > 100 µM, the TGI [30] was > 100 µM and the TGI [31] was > 100 µM. For the same compound, the TGI [59] was > 100 µM, the TGI [32] was > 100 µM and the TGI [33] was > 100 µM. The TGI [34] was > 100 µM, the TGI [35] was > 100 µM and the TGI [60] was > 100 µM. The TGI [61] was > 100 µM, the TGI [36] was > 100 µM and the TGI [62] was > 100 µM. For the same compound, the TGI [38] was > 100 µM, the TGI [39] was > 100 µM and the TGI [40] was > 100 µM. For the same compound, the TGI [41] was > 100 µM, the TGI [42] was > 100 µM and the TGI [43] was > 100 µM. For the same compound, the TGI [44] was > 100 µM, the TGI [45] was > 100 µM and the TGI [63] was > 100 µM. For the same compound, the TGI [46] was > 100 µM, the TGI [47] was > 100 µM and the TGI [48] was > 100 µM. The TGI [49] was > 100 µM, the TGI [51] was > 100 µM and the TGI [52] was > 100 µM. The TGI [53] was > 52.9 µM, the TGI [54] was > 100 µM and the TGI [55] was > 100 µM.
